Source: patent US9333268B2, “Methods of treatment with arginine deiminase” (Polaris Group, priority 2012, dated 2016)
Where a name gives a salt, the structure may show the parent alone.

What was measured:
[1] = system: human pancreatic cancer cell line MIA-PaCa2; experiment: Western blot/ELISA of caspase 3 cleavage, LC3 and p62; format: cell-based; details: ChQ 5 μM added to ADI-PEG 0.3 μg/mL, 72 hours
Experimental: The human pancreatic cancer cell line MIA-PaCa2 was treated in vitro and in vivo with pegylated arginine deiminase (ADI-PEG) alone or in the presence of ChQ. Cell death was measured by propidium iodide (PI)-FACS to determine sub-G1 DNA content, and apoptosis was evaluated by Annexin V-PI flow cytometry. Cleavage of caspase 3 was evaluated by western blots and ELISA. Autophagy was measured by evaluating the expression levels of LC3 and […] p62 (p62) by western blots and ELISA.
In order to determine if ADI induces apoptosis and autophagy in a caspase dependent manner, cells were incubated with either ADI-PEG or a combination of ADI-PEG and ZVAD-fmk, a pan-caspase inhibitor.
The levels of p62, LC3B-I, and LC3B-II were measured by western blot analysis in order to examine autophagic flux.

SK-LC-13 = experiment: Western blot of autophagy-related protein LC3-II; format: cell-based, human; details: 24 hour incubation
Description: Following washing, the membranes were then probed with the appropriate secondary antibody before proteins were finally visualized using ECL reagent (Perkin-Elmer, Fremont Calif., USA).
An assay for the formation of the autophagy-related protein LC3-II assessed if treatment with ADI-PEG 20 was able to induce cellular autophagy in SCLC. […] Chloroquine is a known inhibitor of autophagy that disrupts normal lysosomal functions, and thus results in an increase in the cellular level of LC3-II.

SK-LC-13 cells = experiment: FACS analysis of apoptosis by sub-G1 DNA content (propidium iodide); format: cell-based, human; details: 25 nM, 72 h
Experimental: Apoptosis was measured by FACS of propidium-iodide-stained cells as detailed by Riccardi et al (Riccardi and Nicoletti, Nat Protoc 1(3):1458-1461, 2006). Cells were plated in 24-well plates and treated with ADI-PEG 20 for […]. Cells were then harvested, washed and fixed in 70% ethanol. DNA was then stained using 20 μg ml^−1 propidium iodide containing 10 μgml^−1 DNAse-free RNAse A (Sigma-Aldrich). Cells were then read on a BD FACSCalibur (BD Biosciences) and analyzed using Flow Jo Software (Tree Star, Ashland, Oreg., USA).
In order to determine the possible mechanism of the antiproliferative effects of ADI-PEG 20 a FACS analysis of apoptosis by sub-G1 DNA content was performed. Cells were treated for 72 h before the analysis was performed.

CCN(CCO)CCCC(C)Nc1ccnc2cc(Cl)ccc12 (stereo not drawn) [ChQ, hydroxychloroquine]
ADI induced apoptosis [1]: enhanced ADI induced apoptosis | LC3B-I and LC3B-II [1]: increase in the build up of both LC3B-I and LC3B-II | autophagic flux [1]: diminished autophagic flux | level of p62 [1]: increase in the level of p62

CCN(CC)CCCC(C)Nc1ccnc2cc(Cl)ccc12 (stereo not drawn) [chloroquine, reference compound]
cellular level of LC3-II (SK-LC-13): very robust expression of LC3-II

CC[C@@]1(O)C(=O)OCc2c1cc1n(c2=O)Cc2cc3c(CN(C)C)c(O)ccc3nc2-1 [topotecan, Topotecan hydrochloride, reference compound]
cells in apoptosis (sub-G1 DNA content) (SK-LC-13 cells): around 45%
